Biological target: K. pneumoniae FtsZ (KpFtsZ) (Klebsiella pneumoniae, UniProt A0A0H3GRR0)
Experiment: fluorescence anisotropy titration of intrinsically fluorescent RUP4 ([…]) with purified KpFtsZ, […] °C, […] fit
Format: binding

Sequence of K. pneumoniae FtsZ (KpFtsZ) (A0A0H3GRR0 entry or part of it): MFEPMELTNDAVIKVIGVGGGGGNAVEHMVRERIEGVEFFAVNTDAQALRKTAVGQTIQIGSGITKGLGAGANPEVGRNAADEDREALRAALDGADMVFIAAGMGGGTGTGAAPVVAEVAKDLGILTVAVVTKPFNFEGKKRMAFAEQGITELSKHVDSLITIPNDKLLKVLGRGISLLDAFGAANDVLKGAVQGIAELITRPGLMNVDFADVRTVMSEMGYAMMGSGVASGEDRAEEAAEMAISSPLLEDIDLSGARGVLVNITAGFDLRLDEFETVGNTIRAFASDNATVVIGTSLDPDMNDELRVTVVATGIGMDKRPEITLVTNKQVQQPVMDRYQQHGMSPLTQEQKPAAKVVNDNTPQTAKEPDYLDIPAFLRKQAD

## NC(=O)c1c(F)ccc(OC(CCNC(=O)c2ccc(O)c(O)c2Cl)c2nc(-c3ccc(C(F)(F)F)cc3)c(Br)o2)c1F (stereo not shown) [RUP4]
  Kd: 49 ± 5 µM

Reference: publication PMC10967458, “A FtsZ Inhibitor That Can Utilize Siderophore-Ferric Iron Uptake Transporter Systems for Activity against Gram-Negative Bacterial Pathogens” (Antibiotics, 2024)
